Laboratory results published in patent US20240158392A1 (Janssen Biotech, Inc., priority 2021, published 2024).
Read-outs that look alike come from different tables or passages of the source.

Biological target: SIK2 (Homo sapiens, UniProt Q9H0K1)
Experiment: SIK2 Enzymatic Assay High Version 2 (High ATP)
Type: biochemical
Description: All steps were performed at room temperature. Compounds were pre-plated onto an assay plate using an Echo acoustic dispenser (Labcyte, E550 or E555) at 80 nL per well. Enzyme prepared in assay buffer at 6 nM (2× final concentration) was added at 4 μL per well using the Multidrop Combi (Thermo Fisher—used for all additions in this assay) to the assay plate, spun for 1 min at 1000 rpm (Allegra 6KR Beckman Coulter centrifuge), and incubated with compound for 30 minutes. Assay buffer containing 6 mM ATP and 400 μM HDAC5tide (2× of final concentration for each substrate) was added at 4 μL per well to the assay plate and then spun as above and incubated for 2 hours. […] ADP-Glo Max Reagent (prepared and aliquoted as per manufacturer instructions) was then added at 8 μL per well, spun and incubated for 2 hours. ADP-Glo Max Detection (prepared and aliquoted as per manufacturer instructions) was added at 8 μL per well to the assay plate, which was spun and incubated for 1 hour. The plate is then read on the Pherastar (BMG Labtech) using a luminescence read. Gain is set between 2200-2500.

[1] = enzyme 6 nM, 6 mM ATP and 400 μM HDAC5tide (each 2× final concentration), 30 minutes pre-incubation, 2 hours, ADP-Glo Max luminescence, read-out: SIK2 high ATP IC50 (μM) (Test Example 2)

Sequence of SIK2 (Q9H0K1 whole entry, species assumed): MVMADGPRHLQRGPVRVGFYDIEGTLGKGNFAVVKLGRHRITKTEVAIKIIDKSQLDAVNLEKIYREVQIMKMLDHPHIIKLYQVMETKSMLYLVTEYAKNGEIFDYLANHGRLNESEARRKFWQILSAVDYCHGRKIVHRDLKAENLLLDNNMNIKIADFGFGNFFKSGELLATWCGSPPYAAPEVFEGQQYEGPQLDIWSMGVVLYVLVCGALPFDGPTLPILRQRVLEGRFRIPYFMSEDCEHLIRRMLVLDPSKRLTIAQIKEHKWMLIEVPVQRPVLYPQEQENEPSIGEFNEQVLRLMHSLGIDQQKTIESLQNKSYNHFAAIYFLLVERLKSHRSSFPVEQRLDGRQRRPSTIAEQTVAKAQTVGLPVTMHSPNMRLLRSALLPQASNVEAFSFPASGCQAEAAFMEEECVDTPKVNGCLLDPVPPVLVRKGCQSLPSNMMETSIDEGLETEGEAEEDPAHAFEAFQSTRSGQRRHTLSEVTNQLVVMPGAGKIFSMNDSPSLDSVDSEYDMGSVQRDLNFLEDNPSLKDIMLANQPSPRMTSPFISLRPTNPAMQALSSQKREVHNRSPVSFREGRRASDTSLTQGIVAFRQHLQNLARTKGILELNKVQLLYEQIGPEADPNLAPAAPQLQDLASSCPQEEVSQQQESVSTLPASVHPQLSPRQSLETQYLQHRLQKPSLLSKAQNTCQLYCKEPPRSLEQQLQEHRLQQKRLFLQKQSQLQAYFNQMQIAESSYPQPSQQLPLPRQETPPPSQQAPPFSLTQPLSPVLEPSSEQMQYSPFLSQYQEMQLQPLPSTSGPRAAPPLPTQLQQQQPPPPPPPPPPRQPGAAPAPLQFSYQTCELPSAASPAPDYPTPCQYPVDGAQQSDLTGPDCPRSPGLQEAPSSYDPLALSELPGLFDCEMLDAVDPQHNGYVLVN

| IC50 [1] | SMILES | IC50 |
| --- | --- | --- |
| 0.0138 µM | Cc1cc(-c2ccn3nc(Nc4cc(C)nc(N5CCOCC5)n4)cc3c2)c(OC[C@H]2OCC[C@@H]2O)cn1 [Example 294, (2R,3S)-2-[[6-methyl-4-[2-[(6-methyl-2-morpholino-pyrimidin-4-yl)amino]pyrazolo[1,5-a]pyridin-5-yl]-3-pyridyl]oxymethyl]tetrahydrofuran-3-ol] | – |
| 0.0313 µM | Cc1cc(-c2ccn3nc(Nc4cc(C)nc(C)n4)cc3c2)c(OCC2(C#N)COC2)cn1 [Example 275, 3-[[4-[2-[(2,6-dimethylpyrimidin-4-yl)amino]pyrazolo[1,5-a]pyridin-5-yl]-6-methyl-3-pyridyl]oxymethyl]oxetane-3-carbonitrile] | – |
| 0.00446 µM | Cc1cnc(Nc2cc3cc(-c4cc(C)ncc4OC[C@@]45CN[C@@H](CO4)C5)ccn3n2)cn1 [Example 257, 5-[2-methyl-5-[[(1R,4R)-5-oxa-2-azabicyclo[2.2.1]heptan-4-yl]methoxy]-4-pyridyl]-N-(5-methylpyrazin-2-yl)pyrazolo[1,5-a]pyridin-2-amine] | – |
| 0.0017 µM | Cc1cc(-c2ccn3nc(Nc4cc(C)c(=O)n(C5CC5)n4)cc3c2)c(OC[C@H]2OCC[C@@H]2O)cn1 [Example 317, 2-cyclopropyl-6-[[5-[5-[[(2R,3S)-3-hydroxytetrahydrofuran-2-yl]methoxy]-2-methyl-4-pyridyl]pyrazolo[1,5-a]pyridin-2-yl]amino]-4-methyl-pyridazin-3-one] | – |
| 0.00801 µM | Cc1cc(-c2ccn3nc(Nc4cnccn4)cc3c2)c(OC[C@H]2CNCCO2)cn1 [Example 430, 5-[2-methyl-5-[[(2R)-morpholin-2-yl]methoxy]-4-pyridyl]-N-pyrazin-2-yl-pyrazolo[1,5-a]pyridin-2-amine] | – |
| 0.00284 µM | Cc1cnc(Nc2cc3cc(-c4cc(C)ncc4OC[C@]45CN[C@H](CO4)C5)ccn3n2)cn1 [Example 251, 5-[2-methyl-5-[[(1S,4S)-5-oxa-2-azabicyclo[2.2.1]heptan-4-yl]methoxy]-4-pyridyl]-N-(5-methylpyrazin-2-yl)pyrazolo[1,5-a]pyridin-2-amine] | – |
| 0.0094 µM | Cc1cc(Nc2cc3cc(-c4cc(OC(F)F)ncc4OCC(C)(C)C#N)ccn3n2)nc(N2CCOCC2)n1 [Example 710, 3-[[6-(difluoromethoxy)-4-[2-[(6-methyl-2-morpholino-pyrimidin-4-yl)amino]pyrazolo[1,5-a]pyridin-5-yl]-3-pyridyl]oxy]-2,2-dimethyl-propanenitrile] | – |
| 0.00839 µM | Cc1cc(-c2ccn3nc(Nc4cc(C)nc(C)n4)cc3c2)c(OC[C@H]2CCC3(CCCC3)O2)cn1 (single isomer, unassigned) [Example 231, (*R)—N-(2,6-dimethylpyrimidin-4-yl)-5-[2-methyl-5-(9-oxaspiro[4.4]nonan-8-ylmethoxy)-4-pyridyl]pyrazolo[1,5-a]pyridin-2-amine] | – |
| 0.00954 µM | Cc1cc(Nc2cc3cc(-c4cc(OC(F)F)ncc4OCC4(C#N)CC4)ccn3n2)nc(C)n1 [Example 720, 1-[[6-(difluoromethoxy)-4-[2-[(2,6-dimethylpyrimidin-4-yl)amino]pyrazolo[1,5-a]pyridin-5-yl]-3-pyridyl]oxymethyl]cyclopropanecarbonitrile] | – |
| 0.00479 µM | Cc1cc(-c2ccn3nc(NC(=O)C4CC4)cc3c2)c(OC[C@]23CN[C@H](CO2)C3)cn1 [Example 253, N-[5-[2-methyl-5-[[(1S,4S)-5-oxa-2-azabicyclo[2.2.1]heptan-4-yl]methoxy]-4-pyridyl]pyrazolo[1,5-a]pyridin-2-yl]cyclopropanecarboxamide] | – |

More lines, now with the values behind:

| SMILES | IC50 [1] | IC50 |
| --- | --- | --- |
| CNc1nc(C)cc(Nc2cc3cc(-c4cc(Cl)ncc4OCC(C)(C)C#N)ccn3n2)n1 [Example 675, 3-[[6-chloro-4-[2-[[6-methyl-2-(methylamino)pyrimidin-4-yl]amino]pyrazolo[1,5-a]pyridin-5-yl]-3-pyridyl]oxy]-2,2-dimethyl-propanenitrile] | 0.0391 µM | – |
| Cc1cc(Nc2cc3cc(-c4cc(OC(F)F)ncc4OCC(C)(C)C#N)ccn3n2)ncn1 [Example 685, 3-[[6-(difluoromethoxy)-4-[2-[(6-methylpyrimidin-4-yl)amino]pyrazolo[1,5-a]pyridin-5-yl]-3-pyridyl]oxy]-2,2-dimethyl-propanenitrile] | 0.0312 µM | – |
| O=C(Nc1cc2cc(-c3cc(Cl)ncc3O[C@@H]3C[C@H]4COC[C@@H](C3)N4)ccn2n1)C1CC1 [Example 492, N-[5-[2-chloro-5-[[(1S,5R)-3-oxa-9-azabicyclo[3.3.1]nonan-7-yl]oxy]-4-pyridyl]pyrazolo[1,5-a]pyridin-2-yl]cyclopropanecarboxamide] | – | 0.0516 µM |
| Cc1cc(-c2ccn3nc(Nc4ccc(C(F)(F)F)cn4)cc3c2)c(O[C@H]2C[C@H]3COC[C@@H](C2)N3C)cn1 [Example 411, 5-[2-methyl-5-[[(1S,5R,7s)-9-methyl-3-oxa-9-azabicyclo[3.3.1]nonan-7-yl]oxy]-4-pyridyl]-N-[5-(trifluoromethyl)-2-pyridyl]pyrazolo[1,5-a]pyridin-2-amine] | – | 0.00152 µM |
| CCn1nc(Nc2cc3cc(-c4cc(C)ncc4OC[C@H]4OCC[C@@H]4O)ccn3n2)cc(C)c1=O [Example 293, 2-ethyl-6-[[5-[5-[[(2R,3S)-3-hydroxytetrahydrofuran-2-yl]methoxy]-2-methyl-4-pyridyl]pyrazolo[1,5-a]pyridin-2-yl]amino]-4-methyl-pyridazin-3-one] | < 0.000847 µM | – |
| Cc1cc(-c2ccn3nc(Nc4cc(C)nc(N5CCCC5)n4)cc3c2)c(OCC(C)(C)O)cn1 [Example 285, 2-methyl-1-[[6-methyl-4-[2-[(6-methyl-2-pyrrolidin-1-yl-pyrimidin-4-yl)amino]pyrazolo[1,5-a]pyridin-5-yl]-3-pyridyl]oxy]propan-2-ol] | 0.0109 µM | – |
| COc1ccnc(Nc2cc3cc(-c4cc(OC(F)F)ncc4OCC(C)(C)C#N)ccn3n2)n1 [Example 698, 3-[[6-(difluoromethoxy)-4-[2-[(4-methoxypyrimidin-2-yl)amino]pyrazolo[1,5-a]pyridin-5-yl]-3-pyridyl]oxy]-2,2-dimethyl-propanenitrile] | 0.0018 µM | – |
| Cc1cc(-c2ccn3nc(Nc4cn(C)nn4)cc3c2)c(O[C@H]2C[C@H]3COC[C@@H](C2)N3)cn1 [Example 380, 5-[2-methyl-5-[[(1R,5S,7s)-3-oxa-9-azabicyclo[3.3.1]nonan-7-yl]oxy]-4-pyridyl]-N-(1-methyltriazol-4-yl)pyrazolo[1,5-a]pyridin-2-amine] | – | < 0.000847 µM |
| Cc1cc(-c2ccn3nc(Nc4cc(C)nc(C)n4)cc3c2)c(OCC2(C)COC2)cn1 [Example 546, N-(2,6-dimethylpyrimidin-4-yl)-5-[2-methyl-5-[(3-methyloxetan-3-yl)methoxy]-4-pyridyl]pyrazolo[1,5-a]pyridin-2-amine] | 0.0239 µM | – |
| CNC(=O)c1ccnc(Nc2cc3cc(-c4cc(C)ncc4O[C@H]4C[C@H]5COC[C@@H](C4)N5C(C)=O)ccn3n2)c1 [Example 631, 2-((5-(5-(((1R,5S,7s)-9-acetyl-3-oxa-9-azabicyclo[3.3.1]nonan-7-yl)oxy)-2-methylpyridin-4-yl)pyrazolo[1,5-a]pyridin-2-yl)amino)-N-methylisonicotinamide] | – | 0.0771 µM |
| Cc1cc(-c2ccn3nc(NC(=O)C4CC4)cc3c2)c(OC[C@](C)(O)C(F)(F)F)cn1 (single isomer, unassigned) [Example 190, (*S)—N-(5-(2-methyl-5-(3,3,3-trifluoro-2-hydroxy-2-methylpropoxy)pyridin-4-yl)pyrazolo[1,5-a]pyridin-2-yl)cyclopropanecarboxamide] | 0.0255 µM | – |
| Cc1cc(-c2ccn3nc(Nc4cnccn4)cc3c2)c(OC[C@@H]2CNCCO2)cn1 [Example 431, 5-[2-methyl-5-[[(2S)-morpholin-2-yl]methoxy]-4-pyridyl]-N-pyrazin-2-yl-pyrazolo[1,5-a]pyridin-2-amine] | 0.00194 µM | – |
| Cc1cc(-c2ccn3nc(Nc4cc(C(F)(F)F)n(C)n4)cc3c2)c(O[C@H]2C[C@H]3COC[C@@H](C2)N3)cn1 [Example 379, 5-[2-methyl-5-[[(1S,5R,7s)-3-oxa-9-azabicyclo[3.3.1]nonan-7-yl]oxy]-4-pyridyl]-N-[1-methyl-5-(trifluoromethyl)pyrazol-3-yl]pyrazolo[1,5-a]pyridin-2-amine] | – | 0.00125 µM |
| [2H]C([2H])([2H])N1CC[C@@H]1COc1cnc(C)cc1-c1ccn2nc(NC(=O)C3CC3)cc2c1 [Example 576, N-[5-[2-methyl-5-[[(2R)-1-(trideuteriomethyl)azetidin-2-yl]methoxy]-4-pyridyl]pyrazolo[1,5-a]pyridin-2-yl]cyclopropanecarboxamide] | – | 0.0728 µM |
| CC#Cc1cc(-c2ccn3nc(Nc4ccn(C)n4)cc3c2)c(O[C@H]2C[C@H]3COC[C@@H](C2)N3)cn1 [Example 438, N-(1-methylpyrazol-3-yl)-5-[5-[[(1S,5R)-3-oxa-9-azabicyclo[3.3.1]nonan-7-yl]oxy]-2-prop-1-ynyl-4-pyridyl]pyrazolo[1,5-a]pyridin-2-amine] | – | 0.0102 µM |
| Cc1cc(-c2ccn3nc(NC(=O)C4CC4)cc3c2)c(OC[C@@H]2CCN2)cn1 [Example 526, N-[5-[5-[[(2S)-azetidin-2-yl]methoxy]-2-methyl-4-pyridyl]pyrazolo[1,5-a]pyridin-2-yl]cyclopropanecarboxamide] | – | 0.0198 µM |
| Cc1cc(-c2ccn3nc(Nc4cc(C)nc(C(C)(C)C)n4)cc3c2)c(OCC(C)(C)O)cn1 [Example 261, 1-[[4-[2-[(2-tert-butyl-6-methyl-pyrimidin-4-yl)amino]pyrazolo[1,5-a]pyridin-5-yl]-6-methyl-3-pyridyl]oxy]-2-methyl-propan-2-ol] | 0.0239 µM | – |
